Assays:
[1] = system: southern armyworm (Prodenia Eridania, (Cram.)); assay: Southern armyworm leaf spray test; format: in vivo; parameters: key: A: Excellent control; B: Partial control; C: No control; conditions: 500 ppm, three days
Method: (§1) Suspensions of the test compounds were prepared by dissolving one gram of compound in 50 milliliters of acetone in which had been dissolved 0.1 gram (10 percent of the weight of compound) of an alkylphenoxy polyethoxyethanol surfactant, as an emulsifying or dispersing agent. The resulting solution was mixed into 150 milliliters of water to give roughly 200 milliliters of a suspension containing the compound in finely divided form. The thus-prepared stock suspension contained 0.5 percent by weight of test compound. The test concentrations in parts per million by weight employed in the tests described hereinbelow were obtained by appropriate dilutions of the stock suspension with water. The test procedures were as follows:
Larvae of the southern armyworm (Prodenia Eridania, (Cram.), reared on Tendergreen bean plants at a temperature of 80°±5° F. and relative humidity of 50±5 percent, constituted the test insects.
The test compounds were formulated by diluting the stock suspension with water to give a suspension containing 500 parts of test compound per million parts of final formulation. Potted Tendergreen bean plants of standard height and age were placed on a revolving turntable and sprayed with 100-110 milliliters of test compound formulation by use of a DeVilbiss spray gun set at 10 psig. air pressure.
This application which lasted 25 seconds was sufficient to wet plants to run-off. As a control, 100-110 milliliters of a water-acetone-emulsifier solution containing no test compound were also sprayed on infested plants. When dry, the paired leaves were separated and each one was placed in a 9 centimeter Petri dish lined with moistened filter paper. Five randomly selected larvae were introduced into each dish and the dishes were closed. The closed dishes were labeled and held at 80°-85° F. for three days. Although the larvae could easily consume the whole leaf within twenty-four hours, no more food was added. Larvae which were unable to move the length of the body, even upon stimulation by prodding, were considered dead. Percent mortality was recorded for various concentration levels.
(§2) In these test the pesticidal activity of the compounds against aphid, mite, Southern Armyworm, Mexican Bean Beetle, and house fly was rated as follows: […]

[2] = system: Mexican bean beetle (Epilachna varivestis, Muls.); assay: Mexican bean beetle leaf spray test; format: in vivo; parameters: key: A: Excellent control; B: Partial control; C: No control; conditions: 500 ppm, three days
Method: as §1
Fourth instar larvae of the Mexican bean beetle (Epilachna varivestis, Muls.) reared on Tendergreen bean plants at a temperature of 80°±5° and 50±5 percent relative humidity, were the test insects.
The test compounds were formulated by diluting the stock suspension with water to give a suspension containing 500 parts of test compound per million parts of final formulation. Potted Tendergreen bean plants of standard height and age were placed on a revolving turntable and sprayed with 100-110 milliliters of test compound formulation by use of a DeVilbiss spray gun set at 10 psig air pressure. This application, which lasted 25 seconds was sufficient to wet plants to run-off. As a control, 100-110 milliliters of a water-acetone-emulsifier solution containing no test compound were also sprayed on infested plants. When dry, the paired leaves were separated and each was placed in a 9 centimeter Petri dish lined with moistened filter paper. Five randomly selected larvae were introduced into each dish, and the dishes were closed. The closed dishes were labeled and held at a temperature of 80°±5° F. for three days. Although the larvae could easily consume the leaf within 24 to 48 hours, no more food was added. Larvae which were unable to move the length of the body, even upon stimulation, were considered dead.
as §2

Corn = assay: Phytotoxicity test, corn; format: in vivo; parameters: key: 1: no perceptible injury; 2: intermediate degrees of injury based upon the number and extent to which leaves were injured; 3: intermediate degrees of injury based upon the number and extent to which leaves were injured; 4: intermediate degrees of injury based upon the number and extent to which leaves were injured; 5: the plant was dead; conditions: 2500 ppm spray, after ten days
Method: as §1
(§3) Experiments were also conducted to determine the phytotoxicity of representative compositions with respect to healthy fresh plants. Solutions of the compounds were prepared as described above to provide a concentration of 2500 parts per million of the test compound. The test plants were sprayed in accordance with the procedure described above for the Mite Foliage Spray Test so as to deliver approximately 100 milliliters of test solution to the leaves of each plant tested. The sprayed plants and controls were set aside for approximately one hour to allow the solutions to dry and were then placed in the greenhouse. After ten days the plants were visually inspected to determine the extent of foliage injury. A rating of 1 indicates no perceptible injury; 5 indicates the plant was dead and ratings of 2, 3 and 4 indicate intermediate degrees of injury based upon the number and extent to which leaves were injured.

Cotton = assay: Phytotoxicity test, cotton; format: in vivo; parameters: key: 1: no perceptible injury; 2: intermediate degrees of injury based upon the number and extent to which leaves were injured; 3: intermediate degrees of injury based upon the number and extent to which leaves were injured; 4: intermediate degrees of injury based upon the number and extent to which leaves were injured; 5: the plant was dead; conditions: 2500 ppm spray, after ten days
Method: as §1, §3

[3] = system: bean aphid (Aphis fabae Scop.); assay: Bean aphid foliage spray test; format: in vivo; parameters: key: A: Excellent control; B: Partial control; C: No control; conditions: 500 ppm, 24 hour
Method: as §1
Adults and nymphal stages of the bean aphid (Aphis fabae Scop.) reared on potted dwarf nasturtium plants at 65°-70° F. and 50-70 percent relative humidity, constituted the test insects. For testing purposes, the number of aphids per pot was standardized to 100-150 by trimming plants containing excess aphids.
The test compounds were formulated by diluting the stock suspension with water to give a suspension containing 500 parts of test compound per million parts of final formulation.
The potted plants (one pot per compound tested) infested with 100-150 aphids, were placed on a revolving turntable and sprayed with 100-110 milliliters of test compound formulation by use of a DeVilbiss spray gun set at 40 psig. air pressure. This application, which lasted 25 seconds, was sufficient to wet the plants to run-off. As a control, 100-110 milliliters of a water-acetone-emulsifier solution containing no test compound were also sprayed on infested plants. After spraying, the pots were placed on their sides on a sheet of white standard mimeograph paper which had been previously ruled to facilitate counting. Temperature and humidity in the test room during the 24 hour holding period were 65°-70° F. and 50-70 percent, respectively. Aphids which fell onto the paper and were unable to remain standing after being uprighted were considered dead. Aphids remaining on the plants were observed closely for movement and those which were unable to move the length of the body upon stimulator by prodding were considered dead. Percent mortality was recorded for various concentration levels.
as §2

Soybean = assay: Phytotoxicity test, soybean; format: in vivo; parameters: key: 1: no perceptible injury; 2: intermediate degrees of injury based upon the number and extent to which leaves were injured; 3: intermediate degrees of injury based upon the number and extent to which leaves were injured; 4: intermediate degrees of injury based upon the number and extent to which leaves were injured; 5: the plant was dead; conditions: 2500 ppm spray, after ten days
Method: as §1, §3

Bean = assay: Phytotoxicity test, bean; format: in vivo; parameters: key: 1: no perceptible injury; 2: intermediate degrees of injury based upon the number and extent to which leaves were injured; 3: intermediate degrees of injury based upon the number and extent to which leaves were injured; 4: intermediate degrees of injury based upon the number and extent to which leaves were injured; 5: the plant was dead; conditions: 2500 ppm spray, after ten days
Method: as §1, §3

[4] = Water solubility (Table I); format: physicochemical; conditions: 25° C.
[5] = system: two-spotted mite (Tetranychus urticae Koch); assay: Mite foliage spray test; format: in vivo; parameters: key: A: Excellent control; B: Partial control; C: No control; conditions: 500 ppm, six days
Method: as §1
Adults and nymphal stages of the two-spotted mite (Tetranychus urticae Koch), reared on Tendergreen bean plants at 80±5 percent relative humidity, were the test organisms. Infested leaves from a stock culture were placed on the primary leaves of two bean plants six to eight inches in height, growing in a two- and-a-half inch clay pot. 150-200 mites, a sufficient number for testing, transferred from the excised leaves to the fresh plants in a period of twenty-four hours. Following the twenty-four hour transfer period, the excised leaves were removed from the infested plants. The test compounds were formulated by diluting the stock suspension with water to give a suspension with water to give a suspension containing 500 parts of test compound per million parts of final formulation. The potted plants (one pot per compound) were placed on a revolving turntable and sprayed with 100-110 milliliters of test compound formulation by use of a DeVilbiss spray gun set at 40 psig. air pressure. This application, which lasted for 25 seconds was sufficient to wet the plants to run-off. As a control, 100-110 milliliters of a water solution containing acetone and emulsifier in the same concentrations as the test compound formulation, but containing no test compound, were also sprayed on infested plants. The sprayed plants were held at 80±5 percent relative humidity for six days, after which a mortality count of motile forms was made. Microscopic examination for motile forms was made on the leaves of the test plants. Any individual which was capable of locomotion upon prodding, was considered living.
as §2

[6] = system: house flies (Musca domestica, L.); assay: Fly bait test; format: in vivo; parameters: key: A: Excellent control; B: Partial control; C: No control; conditions: 500 ppm, bait in 10 percent sugar solution, twenty four hours
Method: as §1
Four to six day old adult house flies (Musca domestica, L.) reared according to the specifications of the Chemical Specialties Manufacturing Association (Blue Book, McNair-Dorland Co., NY., 1954; pages 243-244, 261) under controlled conditions of 80°±5° F. and 50±5 percent relative humidity, were the test insects. The flies were immobilized by anesthetizing with carbon dioxide and twenty five immobilized individuals, males and females, were transferred to a cage consisting of a standard food strainer about five inches in diameter which was inverted over a wrapping-paper-covered surface. The test compounds were formulated by diluting the stock suspension with a 10 percent (by weight) sugar solution to give a suspension containing 500 parts of test compound per million parts of final formulation, by weight. Ten milliliters of the test formulation were added to a souffle cup containing a one inch square of an absorbent cotton pad. This bait cup was introduced and centered on the blotting paper under the food strainer prior to admitting the anesthetized flies. The caged flies were allowed to feed on the bait for twenty four hours, at a temperature of 80°±5° F. and the relative humidity of 50±5 percent.
as §2

Tomato = assay: Phytotoxicity test, tomato; format: in vivo; parameters: key: 1: no perceptible injury; 2: intermediate degrees of injury based upon the number and extent to which leaves were injured; 3: intermediate degrees of injury based upon the number and extent to which leaves were injured; 4: intermediate degrees of injury based upon the number and extent to which leaves were injured; 5: the plant was dead; conditions: 2500 ppm spray, after ten days
Method: as §1, §3

SMILES	Pesticidal activity, Southern Armyworm [1]	Pesticidal activity, Mexican Bean Beetle [2]	POST-Emergent Herbicidal (phytotoxicity rating), Corn (Corn)	POST-Emergent Herbicidal (phytotoxicity rating), Cotton (Cotton)	Pesticidal activity, Aphid [3]	POST-Emergent Herbicidal (phytotoxicity rating), Soybean (Soybean)	POST-Emergent Herbicidal (phytotoxicity rating), Bean (Bean)	solubility [4] [mg/mL]	Pesticidal activity, Mite [5]	Pesticidal activity, Fly [6]	POST-Emergent Herbicidal (phytotoxicity rating), Tomato (Tomato)
CN(C(=O)C[N+](C)(C)C)C(=O)Oc1cccc2c1OC(C)(C)C2	A	A	1	2	A	2	1	570	C	A	2
CN(C(=O)C[n+]1ccc(N(C)C)cc1)C(=O)Oc1cccc2c1OC(C)(C)C2	A	A	1	1	A	2	2	160	A	A	1
CN(C(=O)C[N+]1(C)CCOCC1)C(=O)Oc1cccc2c1OC(C)(C)C2	A	A	–	–	A	–	–	140	B	A	–
CN(C(=O)C[n+]1ccn(C)c1)C(=O)Oc1cccc2c1OC(C)(C)C2	A	A	1	1	A	2	2	370	A	A	1
CN(C(=O)C[N+]1(C)CCCC1)C(=O)Oc1cccc2c1OC(C)(C)C2	A	A	1	2	A	2	2	490	A	A	1
CCCCCCCCCCCC[N+](C)(C)CC(=O)N(C)C(=O)Oc1cccc2c1OC(C)(C)C2	A	A	2	2	A	2	2	> 250	A	A	2
CCCCCCCCCCCCCCCCCC[N+](C)(C)CC(=O)N(C)C(=O)Oc1cccc2c1OC(C)(C)C2	A	A	2	2	B	2	2	> 250	C	A	1
